Measurements taken from the supplement of paper PMC10307832.

compound: Cc1ccc(Nc2nccc(N(C)c3ccc4c(C)n(C)nc4c3)n2)cc1S(N)(=O)=O [Pazopanib] + C[C@@H](Oc1cc(-c2cnn(C3CCNCC3)c2)cnc1N)c1c(Cl)ccc(F)c1Cl [Crizotinib] (partner 1 µM); test: relative viability (nuclei count vs DMSO), 5 days (fraction); higher = more cells survive; details: first compound 0.01 µM
Outline: (§1)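 Lung cancer cell lines in 1536-well plates got either a single drug or a fixed anchor-drug dose together with five library-drug doses (not always all listed) in √10 steps, by pin tool, on the day after seeding. Nuclei were counted after 5 days, and relative viability is the treated-to-vehicle ratio of nuclei counts. Values are medians of duplicate plates.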

| Cell Line | relative viability |
| --- | --- |
| NCI-H650 | 0.755 |
| NCI-H1651 | 0.809 |
| EPLC-272H | 0.771 |
| NCI-H322M | 0.922 |
| NCI-H1437 | 0.936 |
| NCI-H1755 | 0.817 |
| NCI-H2023 | 0.695 |
| HCC-15 | 0.773 |
| PC-3 [JPC-3] | 1.03 |
| EKVX | 0.841 |
| LC-2-ad | 0.483 |
| NCI-H1975 | 0.888 |
| SK-LU-1 | 0.952 |
| NCI-H661 | 1.13 |
| RERF-LC-KJ | 0.794 |

same assay, conditions: first compound 0.03162 µM

| Cell Line | relative viability |
| --- | --- |
| NCI-H650 | 0.907 |
| NCI-H1651 | 0.775 |
| EPLC-272H | 1.11 |
| NCI-H1792 | 0.927 |
| NCI-H1355 | 0.965 |
| NCI-H322M | 0.924 |
| NCI-H1437 | 0.935 |
| NCI-H1755 | 0.847 |
| NCI-H2023 | 0.762 |
| HCC-15 | 0.924 |
| PC-3 [JPC-3] | 1.01 |
| EKVX | 1.07 |
| LC-2-ad | 0.462 |
| NCI-H1975 | 1.02 |
| SK-LU-1 | 1.02 |
| NCI-H661 | 0.976 |
| RERF-LC-KJ | 0.773 |

same assay, conditions: first compound 0.1 µM

| Cell Line | relative viability |
| --- | --- |
| NCI-H650 | 0.608 |
| NCI-H1651 | 0.822 |
| EPLC-272H | 1.07 |
| NCI-H1792 | 0.967 |
| NCI-H1355 | 1.08 |
| NCI-H322M | 0.784 |
| NCI-H1437 | 0.953 |
| NCI-H1755 | 0.962 |
| NCI-H2023 | 0.666 |
| HCC-15 | 1.01 |
| PC-3 [JPC-3] | 1.02 |
| EKVX | 0.898 |
| LC-2-ad | 0.467 |
| NCI-H1975 | 0.991 |
| SK-LU-1 | 1.14 |
| NCI-H661 | 1.03 |
| RERF-LC-KJ | 0.812 |

same assay, conditions: first compound 0.3162 µM

| Cell Line | relative viability |
| --- | --- |
| NCI-H650 | 0.784 |
| NCI-H1651 | 0.853 |
| EPLC-272H | 0.885 |
| NCI-H1792 | 0.912 |
| NCI-H1355 | 0.982 |
| NCI-H322M | 0.893 |
| NCI-H1437 | 0.807 |
| NCI-H1755 | 0.844 |
| NCI-H2023 | 0.613 |
| HCC-15 | 0.813 |
| PC-3 [JPC-3] | 0.925 |
| EKVX | 0.916 |
| LC-2-ad | 0.423 |
| NCI-H1975 | 0.964 |
| SK-LU-1 | 0.976 |
| NCI-H661 | 0.998 |
| RERF-LC-KJ | 0.775 |

same assay, conditions: first compound 1 µM

| Cell Line | relative viability |
| --- | --- |
| NCI-H650 | 0.603 |
| NCI-H1651 | 0.924 |
| EPLC-272H | 1.03 |
| NCI-H1792 | 0.952 |
| NCI-H1355 | 1.05 |
| NCI-H322M | 0.844 |
| NCI-H1437 | 1.05 |
| NCI-H1755 | 0.857 |
| NCI-H2023 | 0.728 |
| HCC-15 | 0.893 |
| PC-3 [JPC-3] | 0.936 |
| EKVX | 0.891 |
| LC-2-ad | 0.467 |
| NCI-H1975 | 0.926 |
| SK-LU-1 | 0.852 |
| NCI-H661 | 0.987 |
| RERF-LC-KJ | 0.789 |

compound: Cc1ccc(C(=O)Nc2ccc(CN3CCN(C)CC3)c(C(F)(F)F)c2)cc1C#Cc1cnc2cccnn12 [Ponatinib] + Nc1ncn([C@H]2C[C@H](O)[C@@H](CO)O2)c(=O)n1 [Decitabine] (partner 2 µM); test: as above; details: first compound 0.002 µM
Outline: as §1

| Cell Line | relative viability |
| --- | --- |
| NCI-H650 | 0.296 |
| NCI-H1651 | 0.613 |
| EPLC-272H | 0.334 |
| NCI-H1792 | 0.476 |
| NCI-H1355 | 0.335 |
| NCI-H322M | 0.681 |
| NCI-H1437 | 0.498 |
| NCI-H1755 | 0.701 |
| NCI-H2023 | 0.24 |
| HCC-15 | 0.666 |
| EKVX | 0.329 |
| LC-2-ad | 0.738 |
| NCI-H1975 | 0.386 |
| SK-LU-1 | 0.562 |
| NCI-H661 | 0.524 |
| RERF-LC-KJ | 0.646 |

same assay, conditions: first compound 0.006325 µM

| Cell Line | relative viability |
| --- | --- |
| NCI-H650 | 0.319 |
| NCI-H1651 | 0.704 |
| EPLC-272H | 0.399 |
| NCI-H1792 | 0.488 |
| NCI-H1355 | 0.355 |
| NCI-H322M | 0.688 |
| NCI-H1437 | 0.548 |
| NCI-H1755 | 0.73 |
| NCI-H2023 | 0.196 |
| HCC-15 | 0.671 |
| PC-3 [JPC-3] | 0.871 |
| EKVX | 0.366 |
| LC-2-ad | 0.684 |
| NCI-H1975 | 0.425 |
| SK-LU-1 | 0.569 |
| NCI-H661 | 0.537 |
| RERF-LC-KJ | 0.724 |

same assay, conditions: first compound 0.06325 µM

| Cell Line | relative viability |
| --- | --- |
| NCI-H650 | 0.341 |
| NCI-H1651 | 0.615 |
| EPLC-272H | 0.416 |
| NCI-H1792 | 0.516 |
| NCI-H1355 | 0.399 |
| NCI-H322M | 0.736 |
| NCI-H1437 | 0.606 |
| NCI-H1755 | 0.719 |
| NCI-H2023 | 0.244 |
| HCC-15 | 0.744 |
| PC-3 [JPC-3] | 0.849 |
| EKVX | 0.378 |
| LC-2-ad | 0.696 |
| NCI-H1975 | 0.413 |
| SK-LU-1 | 0.639 |
| NCI-H661 | 0.562 |
| RERF-LC-KJ | 0.835 |

same assay, conditions: first compound 0.2 µM

| Cell Line | relative viability |
| --- | --- |
| NCI-H650 | 0.299 |
| NCI-H1651 | 0.665 |
| EPLC-272H | 0.326 |
| NCI-H1792 | 0.495 |
| NCI-H1355 | 0.346 |
| NCI-H322M | 0.629 |
| NCI-H1437 | 0.593 |
| NCI-H1755 | 0.639 |
| NCI-H2023 | 0.21 |
